Measurements reported in patent EP0676203A1, “Pharmaceutical compositions of antiglucocorticoid compounds for treating or preventing symptoms of spontaneous or narcotic-induced withdrawal” (ROUSSEL UCLAF, priority 1994, dated 1995).
Values joined by “and” are separate entries in the source; they are usually repeats but may differ in a detail not shown here. Identical values can stand only once.

Tests used:
[1] = system: souris dépendantes à la morphine; assay: Naloxone-precipitated withdrawal syndrome (jumping) in morphine-treated mice, repeated 4-day oral treatment; assay type: in vivo
Excerpt: (§1) Les expériences ont été réalisées chez des souris mâles Swiss normales ou surrénalectomisées (Charles River, France) d'un poids corporel compris entre 20 et 25 g. Durant les essais, les animaux ont eu libre accès à la nourriture et à l'eau de boisson. Le nombre d'animaux par groupe est de 10 à 13 souris.
(§2) Les antiglucocorticoïdes : • AG1 (17β-hydroxy 11β-(4-diméthylaminophényl) 17α-(prop-1-ynyl) estra 4,9-dièn-3-one), • AG2 (17β-hydroxy 10β-[(4-méthylphényl) méthyl] 17α-(prop-1-ynyl) estra 4,9-dièn-3-one), • AG3 (γ-lactone de l'acide 17β-hydroxy 11β-(4-diméthylaminophényl) 21-méthylène 3-oxo 19-nor 17α-(pregna 4,9-dièn-21-carboxylique) • AG4 10β-benzyl 17β-hydroxy 17α-(prop-1-ynyl) estra 4,9(11)-dièn-3-one • AG5 11β-[4-(diméthylamino) phényl] 17α-hydroxy 17β-(3-hydroxypropyl) 13α-méthyl gona-4,9-dièn-3-one (onapristone) • AG6 11β-[4-(diméthylamino) phényl] 17β-hydroxy 17α-(3-hydroxy-1-propényl) estra-4,9-dièn-3-one (lilopristone) • AG7 17α-acétoxy 11β-[4-(diméthylamino) phényl] 19-nor pregna 4,9-dièn-3,20-dione • et l'antiprogestérone AP1 (17R 11β-[4-(méthylthio) phényl] spiro (estra-4,9-dièn-17,2'(5'H) furan) 3-one décrit dans WO 87/05908 ex. 3) ont été mis en suspension dans de la méthyl cellusose à 0,5 % et administrés par voie orale (p.o). La morphine a été mise en solution dans du sérum physiologique et administrée par voie sous-cutanée (s.c). Enfin, le chlorhydrate de naloxone a été solubilisé dans de l'eau distillée et injecté par voie intra-péritonéale.
Tous les produits ont été administrées à l'animal sous un volume de 25 ml/kg.
Le premier jour (J1), les animaux ont reçu 5 injections sous-cutanées avec des doses croissantes de morphine réparties dans la matinée et sur le début de l'après midi, à une heure d'intervalle. Les 3 jours suivants (J2, J3, J4), ces mêmes animaux ont été traités le matin par deux administrations de la dose maximale utilisée au jour 1.
Les antiglucocorticoïdes AG1, AG2, AG3, AG4 et AG5 ont été administrées à la dose de 100 mg/kg par voie orale sous forme d'un traitement quotidient effectué 2 heures avant l'administration de morphine et ceci durant 4 jours.
La technique utilisée s'inspire de celle décrite par Way et al. J. Pharmacol. Exp. Ther. (1969), 167 : 1-8 et Huidobro et Maggiolo Acta Physiol. Pharmacol. Latinoam. (1961), 11 : 201-9. Ainsi, l'administration réitérée d'un morphinique induit un phénomène de dépendance physique qui peut être facilement mis en évidence par la précipitation d'un syndrome de sevrage à l'aide d'un antagoniste opiacé tel que la naloxone. Ce syndrome se manifeste, chez la souris sous la forme d'un comportement stéréotypé caractérisé par l'apparition de sauts répétitifs dont le nombre est en relation avec la durée et l'intensité du traitement par le morphinique.
Le sevrage des animaux a été réalisé le quatrième jour; trois heures après le dernier traitement, à l'aide de chlorhydrate de naloxone injecté par voie intrapéritonéale à la dose de 100 mg/kg. Immédiatement après cette injection, les animaux ont été placés individuellement dans des cylindres en plexiglass (hauteur = 40 cm, diamètre = 20 cm). Le nombre de sauts consécutifs au sevrage et effectués par chaque animal a été compté durant une période de 10 minutes.
Les résultats qui figurent dans les tableaux représentent les moyennes des valeurs individuelles assorties de l'erreur standard à la moyenne (m ± esm).

[2] = system: souris dépendantes à la morphine; assay: Naloxone-precipitated withdrawal syndrome (jumping) in morphine-treated mice, acute oral treatment 24 h before withdrawal; assay type: in vivo; conditions: result in words; 100 mg/kg p.o single dose 24 h before naloxone
Excerpt: as §1
as §2, with “Enfin, le chlorhydrate de naloxone a été solubilisé dans de l'eau distillée et injecté par voie intra-péritonéale.” left out

[3] = Morphine 799 mg/kg s.c (cumulated over 4 days) + compound 4 x 100 mg/kg p.o, naloxone 100 mg/kg ip, normal mice
[4] = compound alone, 4 x 100 mg/kg p.o, no morphine, naloxone 100 mg/kg ip on day 4, normal mice

Structure (SMILES) | Nombre de sauts/10 minutes (m ± esm) [1, 3] | Nombre de sauts/10 minutes (m ± esm) [1, 4] | effet sur le syndrome de sevrage morphinique [2] | Nombre de sauts/10 minutes (m ± esm) ([1]; in vivo)
CC#CC1(O)CCC2C3CCC4=CC(=O)CCC4(Cc4ccc(C)cc4)C3=CCC21C (stereo not drawn) [AG2, 17β-hydroxy 10β-[(4-méthylphényl)méthyl] 17α-(prop-1-ynyl) estra 4,9-dièn-3-one] | 79 ± 9 sauts/10 minutes | 0 sauts/10 minutes | inactive | –
CN(C)c1ccc([C@H]2C[C@]3(C)[C@@H](CC[C@]3(O)CCCO)[C@@H]3CCC4=CC(=O)CCC4=C32)cc1 [AG5, 11β-[4-(diméthylamino)phényl] 17α-hydroxy 17β-(3-hydroxypropyl) 13α-méthyl gona-4,9-dièn-3-one] | 68 ± 12 sauts/10 minutes | 1 ± 1 sauts/10 minutes | – | –
CSc1ccc([C@H]2C[C@@]3(C)[C@@H](CC[C@@]34C=CCO4)[C@@H]3CCC4=CC(=O)CCC4=C32)cc1 [AP1, 17R 11β-[4-(méthylthio)phényl] spiro (estra-4,9-dièn-17,2'(5'H)furan) 3-one, reference compound] | – | – | n'a pas modifié de façon significative | –
C=C1C[C@@]2(CC[C@H]3[C@@H]4CCC5=CC(=O)CCC5=C4[C@@H](c4ccc(N(C)C)cc4)C[C@@]32C)OC1=O [AG3] | 66 ± 7 sauts/10 minutes | 3 ± 2 sauts/10 minutes | – | –
CN1CC[C@]23c4c5ccc(O)c4O[C@H]2[C@@H](O)C=C[C@H]3[C@H]1C5 [Morphine, morphine, reference compound] | – | – | – | 115 ± 21 sauts/10 minutes and 97 ± 13 sauts/10 minutes and 117 ± 14 sauts/10 minutes and 103 ± 10 sauts/10 minutes
CC#C[C@]1(O)CC[C@H]2[C@@H]3CCC4=CC(=O)CCC4=C3[C@@H](c3ccc(N(C)C)cc3)C[C@@]21C [AG1, 17β-hydroxy 11β-(4-diméthylaminophényl) 17α-(prop-1-ynyl) estra 4,9-dièn-3-one] | 68 ± 12 sauts/10 minutes | 0 sauts/10 minutes | – | –
CC#CC1(O)CCC2C3CCC4=CC(=O)CCC4(Cc4ccccc4)C3=CCC21C (stereo not drawn) [AG4, 10β-benzyl 17β-hydroxy 17α-(prop-1-ynyl) estra 4,9(11)-dièn-3-one] | 72 ± 7 sauts/10 minutes | 1 ± 1 sauts/10 minutes | – | –
